Among the data in PubChem BioAssay AID330 (DTP/NCI, 2004) are T/C values, retold here.

The structures appear in SMILES notation. Several values for one entry are separate records, joined by “and”; a condition that tells them apart may be missing. Identical values can stand only once. Inconclusive results and toxic doses are left out.

The assay concerns P388 leukemia ip, CD2F1 mice, survival T/C. Kind of assay: NCI In Vivo Anticancer Drug Screen. Data for tumor model P388 Leukemia (intraperitoneal) in CD2F1 (CDF1) mice. As to conditions: endpoint: median survival time, higher = longer survival. In a few lines: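 Mice carrying the transplanted tumor received test compound or vehicle. Survival was recorded in each group, and the value is the treated-group measurement divided by that of the vehicle-treated control group.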

[1] abbreviates: dose: 60.0 mg/kg/injection, schedule: Q01DX005 (ip), vehicle: saline with Tween-80.
Where [2] appears, read: dose: 120.0 mg/kg/injection, schedule: Q01DX005 (ip), vehicle: saline with Tween-80.
[3] abbreviates: dose: 240.0 mg/kg/injection, schedule: Q01DX005 (ip), vehicle: saline with Tween-80.
Setting [4] is: dose: 50.0 mg/kg/injection, schedule: Q01DX005 (ip), vehicle: saline with Tween-80.
The mark [5] stands for this setting: dose: 100.0 mg/kg/injection, schedule: Q01DX005 (ip), vehicle: saline with Tween-80.
Where [6] appears, read: dose: 200.0 mg/kg/injection, schedule: Q01DX005 (ip), vehicle: saline with Tween-80.
Setting [7] is: dose: 100.0 mg/kg/injection, schedule: Q04DX003 (ip), vehicle: Klucel (hydroxypropylcellulose) (HPC).
[8] abbreviates: dose: 200.0 mg/kg/injection, schedule: Q04DX003 (ip), vehicle: Klucel (hydroxypropylcellulose) (HPC).
The mark [9] stands for this setting: dose: 400.0 mg/kg/injection, schedule: Q04DX003 (ip), vehicle: Klucel (hydroxypropylcellulose) (HPC).
[10] abbreviates: dose: 12.5 mg/kg/injection, schedule: Q01DX005 (ip), vehicle: Klucel (hydroxypropylcellulose) (HPC).
The mark [11] stands for this setting: dose: 25.0 mg/kg/injection, schedule: Q01DX005 (ip), vehicle: Klucel (hydroxypropylcellulose) (HPC).
[12] abbreviates: dose: 50.0 mg/kg/injection, schedule: Q01DX005 (ip), vehicle: Klucel (hydroxypropylcellulose) (HPC).
Where [13] appears, read: dose: 6.25 mg/kg/injection, schedule: Q04DX003 (ip), vehicle: saline.
Setting [14] is: dose: 12.5 mg/kg/injection, schedule: Q04DX003 (ip), vehicle: saline.

As to `CCCCCCCCCCCCS(=O)(=O)O`, the T/C reads like this: (dose: 3.12 mg/kg/injection, schedule: Q01DX009 (ip), vehicle: saline with Tween-80) 119 % of control; (dose: 6.25 mg/kg/injection, schedule: Q01DX009 (ip), vehicle: saline with Tween-80) 111 % of control and 119 % of control; (dose: 12.5 mg/kg/injection, schedule: Q01DX009 (ip), vehicle: saline with Tween-80) 110 % of control and 112 % of control.
`N#Cc1nnc2cccc(Cl)n12`: the T/C by setting is: (dose: 25.0 mg/kg/injection, schedule: Q01DX001 (ip), vehicle: Klucel (hydroxypropylcellulose) (HPC)) 96 % of control; (dose: 50.0 mg/kg/injection, schedule: Q01DX001 (ip), vehicle: Klucel (hydroxypropylcellulose) (HPC)) 95 % of control; (dose: 100.0 mg/kg/injection, schedule: Q01DX001 (ip), vehicle: Klucel (hydroxypropylcellulose) (HPC)) 97 % of control.
For `CC(=O)NCCSC(NC(=O)Cc1ccccc1)C(=O)O` (stereo unspecified), the T/C is 94 % of control (dose: 50.0 mg/kg/injection, schedule: Q01DX009 (ip), vehicle: Klucel (hydroxypropylcellulose) (HPC)); 97 % of control (dose: 100.0 mg/kg/injection, schedule: Q01DX009 (ip), vehicle: Klucel (hydroxypropylcellulose) (HPC)); 100 % of control (dose: 200.0 mg/kg/injection, schedule: Q01DX009 (ip), vehicle: Klucel (hydroxypropylcellulose) (HPC)).
With `CC(C)(Br)C(=O)/C=C/c1ccc(Cl)c(Cl)c1`, the T/C is, setting by setting: under setting [1], 111 % of control; under setting [2], 118 % of control; under setting [3], 108 % of control.
For `CC(C)C1OCC(CO)([N+](=O)[O-])CO1` (stereo unspecified), in that order: 102 % of control, 100 % of control and 93 % of control.
As for `Cc1ccc(C2SCC(=O)N2c2nncs2)s1` (stereo unspecified), the T/C by setting is: under setting [4], 100 % of control; under setting [5], 92 % of control; under setting [6], 94 % of control.
On to `CCn1c2ccccc2c2cc(N=Nc3ccc(N)c4ccccc34)ccc21`, for which the T/C runs as follows: under setting [7], 97 % of control; under setting [8], 101 % of control; under setting [9], 94 % of control.
As to `CCC(c1ccc(OC)cc1)C(NC(=S)Nc1ccc(C)cc1)c1ccc(OC)cc1` (stereo unspecified), the T/C was 88 % of control (dose: 100.0 mg/kg/injection, schedule: Q01DX001 (ip), vehicle: saline with Tween-80); 88 % of control (dose: 200.0 mg/kg/injection, schedule: Q01DX001 (ip), vehicle: saline with Tween-80); 90 % of control (dose: 400.0 mg/kg/injection, schedule: Q01DX001 (ip), vehicle: saline with Tween-80).
Regarding `CN=C(c1ccc(NC(=O)c2ccc(C(=O)Nc3ccc(C(=NC)N4CCOCC4)cc3)c(Cl)c2)cc1)N1CCOCC1`, the T/C was 97 % of control (dose: 0.19 mg/kg/injection, schedule: Q01DX005 (ip), vehicle: saline); 100 % of control (dose: 0.39 mg/kg/injection, schedule: Q01DX005 (ip), vehicle: saline); 100 % of control (dose: 0.78 mg/kg/injection, schedule: Q01DX005 (ip), vehicle: saline); 100 % of control (dose: 1.56 mg/kg/injection, schedule: Q01DX005 (ip), vehicle: saline); 107 % of control (dose: 6.25 mg/kg/injection, schedule: Q01DX005 (ip), vehicle: saline).
`COc1ccc2[nH]c3c(c2c1)CNCC3`: the T/C reads like this: (dose: 100.0 mg/kg/injection, schedule: Q01DX009 (ip), vehicle: saline) 110 % of control; (dose: 200.0 mg/kg/injection, schedule: Q01DX009 (ip), vehicle: saline) 112 % of control.
Regarding `COC(=O)CCc1cc(=O)oc2c3c(cc(OC)c12)OC1OC(=O)CC31` (stereo unspecified), the T/C by setting is: (dose: 8.75 mg/kg/injection, schedule: Q01DX005 (ip), vehicle: Klucel (hydroxypropylcellulose) (HPC)) 90 % of control; (dose: 17.5 mg/kg/injection, schedule: Q01DX005 (ip), vehicle: Klucel (hydroxypropylcellulose) (HPC)) 95 % of control; (dose: 35.0 mg/kg/injection, schedule: Q01DX005 (ip), vehicle: Klucel (hydroxypropylcellulose) (HPC)) 90 % of control.
For `COc1cc2c(cc1OC)C1CCN3C(=O)CCC3[N+]1(C)CC2` (stereo unspecified), the T/C (dose: 25.0 mg/kg/injection, schedule: Q01DX009 (ip), vehicle: saline sonified) was 90 % of control; the T/C (dose: 50.0 mg/kg/injection, schedule: Q01DX009 (ip), vehicle: saline sonified) is 90 % of control; the T/C (dose: 100.0 mg/kg/injection, schedule: Q01DX009 (ip), vehicle: saline sonified) is 90 % of control.
As to `COc1cc(/C=N/N2CN(C(C)C(=O)O)B(NCCC(C)C)N=C2N)cc(OC)c1` (stereo unspecified), the T/C runs as follows: under setting [1], 104 % of control; under setting [2], 111 % of control.
As to `OCC(O)C[S][Bi]([c]1ccccc1)[c]1ccccc1` (stereo unspecified), the T/C reads like this: (dose: 60.0 mg/kg/injection, schedule: Q01DX005 (ip), vehicle: Klucel (hydroxypropylcellulose) (HPC)) 116 % of control; (dose: 120.0 mg/kg/injection, schedule: Q01DX005 (ip), vehicle: Klucel (hydroxypropylcellulose) (HPC)) 100 % of control.
Turning to `COc1cc2c(c(C3(O)C(=O)N(C)c4ccccc43)c1OC)OCO2` (stereo unspecified), the T/C was 101 % of control under setting [1], 98 % of control under setting [2] and 98 % of control under setting [3].
For the compound `Cc1nc2ccccc2c(=O)n1/N=C1\C(=O)N(C)c2ccccc21`, the T/C by setting is: under setting [10], 100 % of control; under setting [11], 96 % of control; under setting [12], 91 % of control and 96 % of control; (dose: 100.0 mg/kg/injection, schedule: Q01DX005 (ip), vehicle: Klucel (hydroxypropylcellulose) (HPC)) 105 % of control.
As for `C(=C\c1cc2cc(C3=NCCN3)ccc2[nH]1)/c1ccc(C2=NCCN2)cc1`, the T/C by setting is: under setting [13], 107 % of control and 108 % of control; under setting [14], 117 % of control and 119 % of control.
For `O=S(=O)(O)CC(O)CN1CCN(CCO)CC1` (stereo unspecified), the T/C by setting is: (dose: 60.0 mg/kg/injection, schedule: Q01DX005 (ip), vehicle: saline) 100 % of control; (dose: 120.0 mg/kg/injection, schedule: Q01DX005 (ip), vehicle: saline) 100 % of control; (dose: 240.0 mg/kg/injection, schedule: Q01DX005 (ip), vehicle: saline) 98 % of control.
For `Clc1nc2n[nH]nc2nc1Cl`, the T/C by setting is: (dose: 3.13 mg/kg/injection, schedule: Q04DX003 (ip), vehicle: saline) 100 % of control; under setting [13], 90 % of control; under setting [14], 95 % of control.
As to `O=C1NC(O)c2cc(Br)cc(Br)c2O1` (stereo unspecified), the T/C is 100 % of control under setting [10], 101 % of control under setting [11] and 103 % of control under setting [12].
For the compound `O.O=[N+]([O-])O.[NH2-].[NH2-].[Pt+2]`, the T/C by setting is: (dose: 0.04 mg/kg/injection, schedule: Q01DX009 (ip), vehicle: other) 118 % of control; (dose: 0.16 mg/kg/injection, schedule: Q01DX009 (ip), vehicle: other) 91 % of control; (dose: 0.31 mg/kg/injection, schedule: Q01DX009 (ip), vehicle: other) 150 % of control.
Turning to `COc1ccc(C(CC(=O)O)CC(=O)c2ccc(N(CCCl)CCCl)cc2)cc1` (stereo unspecified), the T/C is 98 % of control (dose: 100.0 mg/kg/injection, schedule: Q01DX001 (ip), vehicle: suspension in saline) and 99 % of control (dose: 200.0 mg/kg/injection, schedule: Q01DX001 (ip), vehicle: suspension in saline).
With `O=C(CN1CCN(c2ccccc2)CC1)n1ccnc1`, the T/C under setting [1] was 95 % of control, the T/C under setting [2] was 97 % of control and the T/C under setting [3] is 100 % of control.
For `C=CCOc1cc2c(cc1C/C=C\c1ccc(OC)cc1)OCO2`, the T/C is 102 % of control under setting [1], 104 % of control under setting [2] and 101 % of control under setting [3].
`COc1ccc(CC(C(=O)NN)S(=O)(=O)NC(C)(C)C)cc1OC` (stereo unspecified): the T/C is, setting by setting: under setting [7], 98 % of control; under setting [8], 98 % of control; under setting [9], 95 % of control.
`CC1(C)Cc2cc3ccccc3nc2-c2ccccc21`: the T/C was 107 % of control under setting [4], 102 % of control under setting [5] and 107 % of control under setting [6].
